Consider one compound from patent publication US20230323463A1, “COMPOSITIONS AND METHODS FOR DETECTING BCL2L14 AND ETV6 GENE FUSIONS FOR DETERMINING INCREASED DRUG RESISTANCE” (UNIVERSITY OF PITTSBURGH-OF THE COMMONWEALTH SYSTEM OF …, priority 2020, published 2023).

What all share (format): cell-based, human
Test [1] relates to engineered stable MCF10A cells. Briefly: Clonogenic assay after prolonged paclitaxel treatment, MCF10A. Conditions: MCF10A cells expressing BCL2L14-ETV6 fusions vs vector or wtETV6; 15 nM paclitaxel, one month. The procedure: (§1) Cell proliferation and clonogenic assays. Engineered stable BT20 cells were seeded at a density of 3,000 cells/well in a 96-well plate. Cell proliferation was measured by MTS assay at different time points using CellTiter 96 AQueous One Solution Cell Proliferation Assay (Promega). For paclitaxel dose curve, stable BT20 cells were seeded at a density of 5000 cells/well in a 96-well plate and treated with vehicle or different doses of paclitaxel. Cell proliferation was measured by MTS assay after 72 hours of treatment. For clonogenic assay, stable BT20 or MCF10A cells were seeded at a density of 10,000 cells/well in a 24-well plate. After attachment to the plate, cells were treated with 0.1% DMSO (vehicle) or paclitaxel at 5 nM for BT20 cells for 6 days or 15 nM for MCF10A cells for 5 days before replacement of the chemical with fresh growth medium. The remaining colonies were growing in the plate for one month and then stained with 0.5% crystal violet in 50% ethanol and counted using ChemiDoc photography (Bio-Rad) and ImageJ.

Test [2] relates to engineered stable BT20 cells. The experiment in a line: Paclitaxel dose curve, cell proliferation by MTS assay. Conditions: BT20 cells expressing BCL2L14-ETV6 fusions vs vector or wtETV6; short-term (72 h) treatment, various doses. The method, then:
as §1
In general terms: Formazan colour is commonly taken as a measure of viable cells.

In test [3] the test system is engineered stable BT20 cells. Briefly: Clonogenic assay after prolonged paclitaxel treatment, BT20. Conditions: 5 nM paclitaxel, one month. The method, then: as §1
The test system of test [4] is engineered BT20 cells. The experiment in a line: Apoptotic biomarkers by immunoblotting after paclitaxel treatment. Conditions: BT20 cells overexpressing BCL2L14-ETV6 fusions vs wtETV6-expressing cells; 48 hours. A general note: A western blot detects proteins with antibodies after separation by electrophoresis.
Experimental: Western blot. For immunoblot analysis, total proteins were extracted by homogenizing the cells in NP40 Lysis Buffer supplemented with complete protease inhibitor cocktail tablet (Roche), 1 mM DTT, and 1 mM PMSF. 20~50 micrograms of protein extracts were denatured in sample buffer, separated by SDS-PAGE, and transferred onto a PVDF membrane (GE). The membranes were blocked and then incubated for 1 h at room temperature or overnight at 4° C. with primary antibodies, followed by incubation with respective horseradish peroxidaseconjugated secondary antibody. The signals were then visualized by the enhanced chemiluminescence system (Clarity Western ECL Substrate and ChemiDoc imaging system, Bio-Rad).

“Also recorded” adds a separate entry of the source.

Consider `CC(=O)O[C@H]1C(=O)[C@@]2(C)[C@H]([C@H](OC(=O)c3ccccc3)[C@]3(O)C[C@H](OC(=O)[C@H](O)[C@@H](NC(=O)c4ccccc4)c4ccccc4)C(C)=C1C3(C)C)[C@]1(OC(C)=O)CO[C@@H]1C[C@@H]2O` [paclitaxel], for which the “clonal resistance to paclitaxel” value in test [1] is reported as “increased clonal resistance; also recorded: clonal resistance in MCF10A cells”; in test [3] (BT20 cells expressing BCL2L14-ETV6 fusions (E2E3, E4E3, E4E2)), “evident clonal resistance; also recorded: clonal resistance in BT20 cells”. Further, the “sensitivity to paclitaxel (cell viability)” value in test [2] is “modest reduced sensitivity; also recorded: increased resistance”. In addition, the “clonal survival after paclitaxel” value in test [3] (BT20 cells expressing wtETV6 or vector control) was “almost eradicated”. Also, the “apoptosis biomarkers following paclitaxel treatment” value in test [4] is on record as “did not show evident reduced apoptosis”.
